Patent publication US8637470B2, “Small humanin-like peptides” (The Regents of the University of California, priority 2008, dated 2014)
“Also recorded” adds a separate entry of the source. Where no end group is shown, it is not given here.

Tests used:
[1] = system: Mouse primary cortical neurons; test: Protection of primary cortical neurons from Aβ-induced cell death (Calcein-AM); assay type: cell-based; details: 72 h
Protocol: SHLPs protect neurons from Aβ-induced apoptosis. When it was first discovered, HN was described as a potent neural survival factor with clinical implications as a therapeutic agent against neurodegenerative diseases such as Alzheimer's Disease. Since many of the SHLPs appear to be functionally related to HN, SHLPs were tested as potential neuroprotective factors. Mouse primary cortical neurons were incubated with 25 μM Aβ1-43 in the presence or absence of 100 nM SHLP2 or 3, HNG (positive control) or 1 nM colivelin (positive control). After 72 h, neuronal viability was assessed by Calcein-AM staining followed by fluorescence microscopy (FIG. 13).

ERK = ERK activation in 22RV1 cells (immunoblotting, ELISA); assay type: cell-based, human; details: 22RV1, 100 nM
Protocol: Characterization of the intracellular signaling pathways activated by SHLPs. To determine a mechanism for the growth and apoptosis effects of SHLPs, SHLPs were tested for the ability to modulate activation of intracellular signaling pathways. 22RV1 cells in SF media were treated with 100 nM SHLP 1-5 and whole cell extracts were harvested after 15 min, 30 min, 2 h, 4 h, 8 h and 24 h. Proteins were separated by SDS-PAGE and analyzed by immunoblotting.
To test the hypothesis that SHLPs may act in concert to regulate intracellular signaling, 22RV1 cells were co-treated with SHLPs 2 and 3, and ERK activation was assessed.
Since HN causes activation of STAT3, SHLPs 2 and 3 were also tested for effects on STAT3. […] To more accurately quantify the ERK phosphorylation caused by SHLPs 2 and 3, we repeated the experiment as described above but used a commercially available ERK ELISA to assess ERK phosphorylation. Optimal ERK activation by SHLP2 was 9-fold after 24 h, whilst optimal activation by SHLP3 was 12-fold after 2 h (FIG. 5).

[2] = system: Mouse NIT-1 insulinoma β-cells; test: Cell proliferation (cell number by MTT/MTS cleavage) in NIT-1 cells; assay type: cell-based; details: NIT-1, 100 nM peptide, 72 h
Protocol: (§1) SHLPs exert distinct effects on cell proliferation. Whether SHLPs have the capacity to influence cell proliferation, in addition to their intrinsic effects on apoptosis induction, was also investigated. Mouse NIT-1 insulinoma β-cells and 22RV1 human prostate cancer cells were serum starved for 24 h, followed by 72 h incubation with 100 nM scrambled control peptide, HN or SHLPs. Cell number, as a measure of cell proliferation, was assessed by cleavage of MTT substrate.

[3] = system: 22RV1 human prostate cancer cells; test: Cell proliferation (cell number by MTT/MTS cleavage) in 22RV1 cells; assay type: cell-based; details: 22RV1, 100 nM peptide, 72 h
Protocol: as §1
Pro-apoptotic effect on human prostate cancer cells in vitro. To assess the ability of SHLP6 to induce apoptosis in human prostate cancer cells, PC-3, 22RV1 or DU145 cells were incubated in serum free (SF) media for 24 h followed by 24 h incubation with 1 μM scrambled (control) peptide or SHLP6. Apoptosis was assessed by ELISA for fragmentation of histone-associated DNA. In each cell line tested, SHLP6 induced apoptosis by at least 2-fold (FIG. 2), confirming highly significant physiological effects of this novel peptide. To determine whether the effects of SHLP6 were specific to induction of apoptosis, or if it also elicited growth-inhibitory effects, PC-3, DU-145, 22RV1, LAPC4 and LNCaP cells were incubated in SF media for 24 h followed by 72 h incubation with 1 μM SHLP6. Cell number, as a measure of cell proliferation, was assessed by cleavage of MTS substrate.

biotinylated-HN = biotinylated-HN (Homo sapiens, UniProt Q8IVG9); test: Dot-blot binding to biotinylated-HN; details: 2, 5 or 10 nmol peptide dotted on nitrocellulose
Protocol: To test a dimerization hypothesis, we performed a dot-blot using biotinylated-HN. Two, 5 or 10 nmol IGF-I (negative control), HN (positive control) or SHLP peptide were dotted on to nitrocellulose membrane, and their ability to bind to biotinylated-HN was assessed immunologically. […] Specific interactions that occur may be determined using, e.g., dot blots with biotinylated SHLPs, and/or antibodies against specific SHLPs.

[4] = system: 22RV1 human prostate cancer cells; test: Apoptosis ELISA (fragmentation of histone-associated DNA) in 22RV1 cells; assay type: cell-based; details: 22RV1, serum starved 24 h, then 24 h with 100 nM peptide
Protocol: (§2) SHLPs are anti-apoptotic in 22RV1 prostate cancer cells and NIT-1 β-cells. […] Mouse NIT-1 insulinoma β-cells and 22RV1 human prostate cancer cells were serum starved for 24 h, followed by 24 h incubation with 100 nM scrambled control peptide, HN or SHLPs. Apoptosis was assessed and quantified by ELISA for fragmentation of histone-associated DNA.
(§3) ERK activation is necessary for SHLP-induced inhibition of apoptosis in NIT-1 and 22RV1 cells. To determine the significance of ERK activation for apoptosis inhibition by SHLPs 2 and 3, PD98059 (PD), a specific chemical inhibitor of ERK1/2, was utilized. 22RV1 and NIT-1 cells were serum starved for 24 h in the presence or absence of 25 μM PD or 1 μM wortmannin (PI3-kinase inhibitor; negative control), followed by 24 h incubation with […] scrambled control peptide, SHLP2 or SHLP3. Apoptosis was then assessed by ELISA for fragmentation of histone-associated DNA.
STAT3 Activation is also necessary for SHLP-induced cell survival in 22RV1 cells. Since SHLPs 2 and 3 both stimulate STAT3 phosphorylation in addition to ERK activation, the hypothesis that STAT3 activation occurs downstream of ERK1/2 was tested using a specific chemical inhibitor against STAT3, stattic. 22RV1 cells were incubated for 24 h in SF media in the presence or absence of 20 μM stattic followed by 24 h incubation with 100 nM scrambled control peptide, SHLP2 or SHLP3. Apoptosis was assessed by ELISA for fragmentation of histone-associated DNA. […]

[5] = system: 22RV1 prostate cancer xenografts; details: mouse, in vivo, ip, 4 mg/kg/day
Protocol: Inhibition of 22RV1 xenograft tumor growth and angiogenesis in vivo. In light of the pro-apoptotic actions of SHLP6 in vitro and the association of many cancers with mitochondrial dysfunction, the effect of SHLP6 on tumor growth was investigated in vivo. SCID mice harboring 22RV1 prostate cancer xenografts were treated with 4 mg/kg/day SHLP6 or scrambled control peptide by daily i.p. injection for 7 days.
To assess the mechanism underlying the reduction in tumor growth, tumor apoptosis (TUNEL), angiogenesis (VEGF) and tumor cell proliferation (PCNA; not shown) were assessed by IHC (FIG. 19). […] SHLP6 therefore has great potential as an anti-cancer agent.

[6] = system: Mouse NIT-1 insulinoma β-cells; test: Apoptosis ELISA (fragmentation of histone-associated DNA) in NIT-1 cells; assay type: cell-based; details: NIT-1, serum starved 24 h, then 24 h with 100 nM peptide
Protocol: as §2, §3
Role of IGFBP-3 in effects of SHLPs on cell survival. Since IGFBP-3 is an important regulator of HN action, IGFBP-3 was tested for a possible role in regulating the anti- or pro-apoptotic actions of SHLPs. NIT-1 cells were incubated with 1 μg/ml IGFBP-3±0, 10, 100 or 1000 nM SHLP2 or 3 for 24 h. Apoptosis induction was assessed by ELISA for fragmentation of histone-associated DNA.
Co-incubation of SHLPs. To evaluate therapeutic uses involving co-treatment with SHLPs, the effect of HN±SHLPs on apoptosis was tested in both 22RV1 and NIT-1 cells. Cells were incubated in SF media for 24 h followed by 24 h with 100 nM HN, SHLP or peptide combination. Apoptosis was assessed by ELISA for fragmentation of histone-associated DNA. Cells were treated with all possible double peptide combinations. Although many peptide combinations had no additive or combined effects compared with the actions of the peptides individually, co-treatment with certain combinations led to unexpected functional changes (FIG. 11). […] Thus, specific SHLPs may either act on complementary pathways, or interact with each other, leading to change of function of one or both peptides. When the same experiments were repeated in NIT-1 cells, similar, but different, change of function effects were observed (FIG. 11B).

S. cerevisiae = test: Yeast heat shock survival; assay type: cell-based; details: 10 μM peptide, 90° heat shock
Protocol: SHLPs enhance stress resistance in yeast. The ability of SHLPs to enhance stress resistance in yeast was tested. The ability of yeast to survive heat shock after being treated with different peptides is a commonly used method to test the ability of peptides to enhance yeast survival.

| Substance | Cell number as a measure of cell proliferation [2] | Cell number as a measure of cell proliferation [3] | Binding to biotinylated-HN (dot-blot) (biotinylated-HN) | Apoptosis (fragmentation of histone-associated DNA) [4] | other results |
| --- | --- | --- | --- | --- | --- |
| colivelin [reference compound] |  |  |  |  | Neuronal viability against Aβ-induced cell death ([1]; 25 μM Aβ1-43, 1 nM colivelin): inhibited |
| HNG: HNG (S14G), hyper-potent HN analog (MAPRGFSCLLLLTGEIDLPVKRRA; Humanin; UniProt Q8IVG9 1-24, looked up, variant S14G) [reference compound] |  |  |  |  | Neuronal viability against Aβ-induced cell death ([1]; 25 μM Aβ1-43, 100 nM peptide): inhibited |
| MCHWAGGASNTGDARGDVFGKQAG [SHLP1, small humanin-like peptide, mtDNA 2490-2561] | slightly stimulated the proliferation | slightly stimulated the proliferation | no interaction | minimal effect | Duration of sustained ERK phosphorylation (ERK): approximately 8 h; Increase in ERK phosphorylation (immunoblotting) (ERK; within 30 min): 5 fold |
| MLDQDIPMVQPLLKVRLFND [SHLP6] |  |  |  |  | Signs of toxicity [5]: no detectable signs of toxicity |
| MYCSEVGFCSEVAPTEIFNAGLVV [SHLP5, small humanin-like peptide, mtDNA 2785-2856] | slightly stimulated the proliferation | slightly stimulated the proliferation |  | minimal effect | ERK activation profile (immunoblotting) (ERK; 15 min to 24 h): no observable effect |
| MAPRGFSCLLLLTSEIDLPVKRRA [HN, reference compound] |  |  | dimerize/multimerize with itself |  | Apoptosis (fragmentation of histone-associated DNA) [6]: anti-apoptotic effects; Yeast survival of heat shock (S. cerevisiae): allowed the yeast to withstand 90° heat shock |
| MLEVMFLVNRRGKICRVPFTFFNLSL [SHLP4, small humanin-like peptide, mtDNA 2446-2524] | slightly stimulated the proliferation | slightly stimulated the proliferation | very strong interactions; also recorded: binds | minimal effect | Apoptosis (fragmentation of histone-associated DNA) [6]: anti-apoptotic effects |
